In paper doi:10.1101/669069v1 (biorxiv, 2019):

Target: T1, uMAT (MAT from U. urealiticum) (Ureaplasma urealyticum, UniProt A0ABM9XK24)
T1 sequence (A0ABM9XK24 1-376): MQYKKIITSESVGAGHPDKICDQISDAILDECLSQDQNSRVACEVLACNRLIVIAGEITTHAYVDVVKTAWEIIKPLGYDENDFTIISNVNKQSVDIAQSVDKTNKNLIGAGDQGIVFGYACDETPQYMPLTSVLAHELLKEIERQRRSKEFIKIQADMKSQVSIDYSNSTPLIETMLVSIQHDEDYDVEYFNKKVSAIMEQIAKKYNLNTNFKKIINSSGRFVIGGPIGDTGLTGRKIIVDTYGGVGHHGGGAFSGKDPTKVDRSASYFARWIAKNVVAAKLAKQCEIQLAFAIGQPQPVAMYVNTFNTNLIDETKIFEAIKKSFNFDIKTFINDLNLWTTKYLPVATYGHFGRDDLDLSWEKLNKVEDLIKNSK
Assay: thermal shift, SYPRO-orange
Format: binding
Details: read-out: dTm (first transition) at 1 mM

ΔTm at 1000 µM [°C] | SMILES
~2 | Nc1ncnc2c1ncn2[C@@H]1O[C@H](COP(=O)(O)OP(=O)(O)NP(=O)(O)O)[C@@H](O)[C@H]1O [AMPPNP]
> 10 | C[S+](CC[C@H](N)C(=O)O)C[C@H]1O[C@@H](n2cnc3c(N)ncnc32)[C@H](O)[C@@H]1O (some centres unmarked) [SAM, S-adenosylmethionine]
